Measurements published in ChEMBL document CHEMBL1201862, “PubChem BioAssay data set” (2004).
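These data come from cells grown in 96-well plates and exposed to compound for 48 hours at five concentrations. GI50 is the concentration that inhibits growth by half.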 The source made the active and inactive calls. No stated cut-off is given here; in the data, active = GI50 up to about 1.1 µM and inactive = higher.

Columns and labels:
Assay in all cases: inhibition of tumour cell growth, NCI panel, 48 h
Hs-578T = system: Hs-578T
SN12C = system: SN12C
TK-10 = system: TK-10
SK-MEL-5 = system: SK-MEL-5
OVCAR-5 = system: OVCAR-5
MDA-MB-231 = system: MDA-MB-231
Malme-3M = system: Malme-3M
DU-145 = system: DU-145
HCT-116 = system: HCT-116
A549 = system: A549
HOP-92 = system: HOP-92
NCI/ADR-RES = system: NCI/ADR-RES
T47D = system: T47D
CCRF-CEM = system: CCRF-CEM
OVCAR-8 = system: OVCAR-8
HCT-15 = system: HCT-15
SW-620 = system: SW-620
NCI-H522 = system: NCI-H522
PC-3 = system: PC-3
SF-539 = system: SF-539

Compound | GI50 (Hs-578T) | GI50 (SN12C) | GI50 (TK-10) | GI50 (SK-MEL-5) | GI50 (OVCAR-5) | GI50 (MDA-MB-231) | GI50 (Malme-3M) | GI50 (DU-145) | GI50 (HCT-116) | GI50 (A549) | GI50 (HOP-92) | GI50 (NCI/ADR-RES) | GI50 (T47D) | GI50 (CCRF-CEM) | GI50 (OVCAR-8) | GI50 (HCT-15) [µM] | GI50 (SW-620) | GI50 (NCI-H522) | GI50 (PC-3) | GI50 (SF-539)
COC(=O)c1c(C#N)c(N)nc2c1CCC2 | 70 µM (inactive) | > 100 µM (inactive) | > 100 µM (inactive) | > 100 µM (inactive) | > 100 µM (inactive) | > 100 µM (inactive) | > 100 µM (inactive) | > 100 µM (inactive) | > 100 µM (inactive) | > 100 µM (inactive) | > 100 µM (inactive) | > 100 µM (inactive) | 75.5 µM (inactive) | 99.8 µM (inactive) | > 100 µM (inactive) | > 100 | > 100 µM (inactive) | > 100 µM (inactive) | > 100 µM (inactive) | 
CC1(C)C(/C=N\O)=[N+]([O-])C(C)(C)N1O | > 100 µM (inactive) | > 100 µM (inactive) | > 100 µM (inactive) | > 100 µM (inactive) | > 100 µM (inactive) | > 100 µM (inactive) | > 100 µM (inactive) | > 100 µM (inactive) | > 100 µM (inactive) | > 100 µM (inactive) | > 100 µM (inactive) | > 100 µM (inactive) | > 100 µM (inactive) | 89.7 µM (inactive) | > 100 µM (inactive) | > 100 | > 100 µM (inactive) |  | > 100 µM (inactive) | > 100 µM (inactive)
Nc1nc(N)c2ncn(CC3CCC(CO)C3)c2n1 (stereo not drawn) | > 100 µM (inactive) | > 100 µM (inactive) | > 100 µM (inactive) | > 100 µM (inactive) | > 100 µM (inactive) | > 100 µM (inactive) |  | > 100 µM (inactive) | > 100 µM (inactive) | > 100 µM (inactive) | > 100 µM (inactive) | > 100 µM (inactive) | > 100 µM (inactive) | > 100 µM (inactive) |  | > 100 | > 100 µM (inactive) |  | > 100 µM (inactive) | > 100 µM (inactive)
Nc1nc(Cl)c(N)c(NCC2(CO)CC(Cc3ccccc3)C2)n1 (stereo not drawn) | > 39.8 µM (inactive) | > 100 µM (inactive) | > 100 µM (inactive) | 0.0766 µM (active) | > 100 µM (inactive) | 61.4 µM (inactive) |  | > 100 µM (inactive) | 3.15 µM (inactive) | > 75 µM (inactive) | > 77.3 µM (inactive) | 15.1 µM (inactive) | 0.923 µM (active) | 23.1 µM (inactive) | 56.9 µM (inactive) | > 79.3 | > 72.8 µM (inactive) | 28.5 µM (inactive) | 51.3 µM (inactive) | > 100 µM (inactive)
CN(C)C(Cc1c[nH]cn1)C(=O)N1CCCC1C(N)=O (stereo not drawn) | > 100 µM (inactive) | > 100 µM (inactive) | > 100 µM (inactive) | > 100 µM (inactive) | > 100 µM (inactive) | > 100 µM (inactive) | > 100 µM (inactive) | > 100 µM (inactive) | > 100 µM (inactive) | > 100 µM (inactive) | > 100 µM (inactive) | > 100 µM (inactive) | > 100 µM (inactive) | > 100 µM (inactive) | > 100 µM (inactive) | > 100 | > 100 µM (inactive) | > 100 µM (inactive) | > 100 µM (inactive) | 
C/C(=N\Nc1nc2ccccc2s1)c1cnccn1 | 2.33 µM (inactive) | 1.08 µM (active) |  | 2.57 µM (inactive) | 3.33 µM (inactive) | 0.757 µM (active) | 0.505 µM (active) | 4.34 µM (inactive) | 1.5 µM (inactive) | 3.3 µM (inactive) | 1.51 µM (inactive) | 1.74 µM (inactive) | 0.769 µM (active) | 0.318 µM (active) | 1.7 µM (inactive) | 0.625 | 0.505 µM (active) | 0.265 µM (active) | 2.12 µM (inactive) | 5.24 µM (inactive)
CCO/C(Cc1ccc(Cl)cc1)=N/NC(N)=S | > 100 µM (inactive) | > 100 µM (inactive) | > 100 µM (inactive) | 84.5 µM (inactive) | > 100 µM (inactive) | > 100 µM (inactive) | > 100 µM (inactive) | > 100 µM (inactive) | > 100 µM (inactive) | > 100 µM (inactive) | > 100 µM (inactive) | > 100 µM (inactive) | 27.8 µM (inactive) | > 100 µM (inactive) | > 100 µM (inactive) | > 100 | > 100 µM (inactive) |  | > 100 µM (inactive) | > 100 µM (inactive)
CC1CN(CCO)CCN1c1ccccc1 (stereo not drawn) | > 100 µM (inactive) | > 100 µM (inactive) | > 100 µM (inactive) | > 100 µM (inactive) | > 100 µM (inactive) | > 100 µM (inactive) | > 100 µM (inactive) | > 100 µM (inactive) | > 100 µM (inactive) | > 100 µM (inactive) | > 100 µM (inactive) | > 100 µM (inactive) | > 100 µM (inactive) |  | > 100 µM (inactive) | > 100 | > 100 µM (inactive) | > 100 µM (inactive) | > 100 µM (inactive) | > 100 µM (inactive)
S=C1NCN2CCN(CC2)CNC(=S)C(=S)NCN2CCN(CC2)CNC1=S | 54.1 µM (inactive) | 44.5 µM (inactive) | > 100 µM (inactive) | 39.5 µM (inactive) | > 100 µM (inactive) | > 100 µM (inactive) | > 100 µM (inactive) | 36.8 µM (inactive) | 79.4 µM (inactive) | 36.8 µM (inactive) | 62.1 µM (inactive) | 67.5 µM (inactive) | > 100 µM (inactive) | 18.5 µM (inactive) | 31.8 µM (inactive) | 31.3 | 30.4 µM (inactive) | 31 µM (inactive) | 35.2 µM (inactive) | 
O=C1C[S+]([O-])C23c4cc5ccccc5n4CCC2CCCN13 (stereo not drawn) | > 100 µM (inactive) | > 100 µM (inactive) | > 100 µM (inactive) | > 100 µM (inactive) | > 100 µM (inactive) | > 100 µM (inactive) | > 100 µM (inactive) | > 100 µM (inactive) | > 100 µM (inactive) | > 100 µM (inactive) | > 100 µM (inactive) | > 100 µM (inactive) | > 100 µM (inactive) |  | > 100 µM (inactive) | > 100 | > 100 µM (inactive) | > 100 µM (inactive) | > 100 µM (inactive) | > 100 µM (inactive)
Cc1ccc(C(=O)/C=C/N2CCN(c3cccc(C(F)(F)F)c3)CC2)cc1 | 24 µM (inactive) | 18.5 µM (inactive) | 25.3 µM (inactive) | 14.9 µM (inactive) | 21.4 µM (inactive) | 14.6 µM (inactive) | 18.6 µM (inactive) | 16 µM (inactive) | 16.7 µM (inactive) | 22.9 µM (inactive) | 27.1 µM (inactive) | 17.9 µM (inactive) | 20.1 µM (inactive) |  | 17.5 µM (inactive) | 15.6 | 20.6 µM (inactive) | 17.5 µM (inactive) | 25.1 µM (inactive) | 15.9 µM (inactive)
N#Cc1c(O)n(-c2ccccc2)c(=O)c2c(N)n[nH]c12 | > 100 µM (inactive) | > 100 µM (inactive) | > 100 µM (inactive) | > 100 µM (inactive) | > 100 µM (inactive) | > 100 µM (inactive) | > 100 µM (inactive) | > 100 µM (inactive) | > 100 µM (inactive) | > 100 µM (inactive) | > 100 µM (inactive) | > 100 µM (inactive) | > 100 µM (inactive) |  | > 100 µM (inactive) | > 100 | 64.9 µM (inactive) | 69.8 µM (inactive) | > 100 µM (inactive) | > 100 µM (inactive)
Nc1sccc1S(=O)(=O)c1ccsc1N | > 100 µM (inactive) | > 100 µM (inactive) | > 100 µM (inactive) | > 100 µM (inactive) | > 100 µM (inactive) | > 100 µM (inactive) | > 100 µM (inactive) | > 100 µM (inactive) | > 100 µM (inactive) | > 100 µM (inactive) | > 100 µM (inactive) | > 100 µM (inactive) | > 100 µM (inactive) |  | > 100 µM (inactive) | > 100 | > 100 µM (inactive) | > 100 µM (inactive) | > 100 µM (inactive) | > 100 µM (inactive)
C#C[C@]1(O)CC[C@H]2[C@@H]3CCC4=C/C(=N/CCOC(=O)c5cccc6c(=O)c7ccccc7[nH]c56)CC[C@@H]4[C@H]3CC[C@@]21C | 35.2 µM (inactive) | 74.5 µM (inactive) | 45.8 µM (inactive) | 28 µM (inactive) | > 100 µM (inactive) | 15.7 µM (inactive) | 34.6 µM (inactive) | 32.4 µM (inactive) | 42.9 µM (inactive) | 41.7 µM (inactive) | 23.1 µM (inactive) | 40.9 µM (inactive) | 20.5 µM (inactive) | 35.7 µM (inactive) | 21 µM (inactive) | 45 | 45.2 µM (inactive) | 31.4 µM (inactive) | 18.4 µM (inactive) | 
COc1cnc2cc(C(=O)O)c3c([N+](=O)[O-])cccc3c2c1 | > 100 µM (inactive) | > 100 µM (inactive) | > 100 µM (inactive) | > 100 µM (inactive) | > 100 µM (inactive) | > 100 µM (inactive) | > 100 µM (inactive) | > 100 µM (inactive) | > 100 µM (inactive) | > 100 µM (inactive) | > 100 µM (inactive) | > 100 µM (inactive) | > 100 µM (inactive) | > 100 µM (inactive) | > 100 µM (inactive) | > 100 | > 100 µM (inactive) | > 100 µM (inactive) | > 100 µM (inactive) | 
